# Results: ChEMBL document CHEMBL1154991, “Activity-guided isolation of antioxidative constituents of Cotinus coggygria” (J Nat Prod, 2000)
# Test system: Radical scavenging activity
# Assay: Antioxidant activity assessed as DPPH radical scavenging activity after 30 mins
# Type: functional
row,Structure (SMILES),IC50 [µg/mL]
1,COC(=O)c1cc(O)c(O)c(O)c1 [GALLIC ACID METHYL ESTER],18.6
2,COc1ccc(O)c(C(C)(C)C)c1.COc1ccc(O)cc1C(C)(C)C [BUTYLATED HYDROXYANISOLE],21
3,O=C(OC[C@H]1O[C@@H](OC(=O)c2cc(O)c(O)c(O)c2)[C@H](OC(=O)c2cc(O)c(O)c(O)c2)[C@@H](OC(=O)c2cc(O)c(O)c(O)c2)[C@@H]1OC(=O)c1cc(O)c(O)c(O)c1)c1cc(O)c(O)c(O)c1 [PENTAGALLOYL GLUCOSE],12.6
4,O=C1/C(=C/c2ccc(O)c(O)c2)Oc2cc(O)ccc21 [SULFURETIN],16.1
5,O=C(O)c1cc(O)c(O)c(O)c1 [GALLIC ACID],10
6,O=C1O[C@H]([C@@H](O)CO)C(O)=C1O [ASCORBIC ACID],22
7,O=C1/C(=C/c2ccc(O)c(O)c2)Oc2cc(O[C@@H]3O[C@H](CO)[C@@H](O)[C@H](O)[C@H]3O)ccc21 [SULFUREIN],18.7
8,O=C1/C(=C(/C(=C2\Oc3cc(O)ccc3C2=O)c2ccc(O)c(O)c2)c2ccc(O)c(O)c2)Oc2cc(O)ccc21,9.7
